For series [1], the system named is human embryonic stem cell derived neural stem cells (NSCs). Briefly: Neural Stem Cell Proliferation Assay (neurogenesis assay, ATP levels by CellTiterGlo). Format: cell-based. To be noted: 96 h, compound concentration at which 150% activity of control (100%) is reached, NSC proliferation by ATP level after 4 days incubation, dose response 8 μM to 8 nM. Summed up: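 Human ESC-derived NSCs (dual SMAD inhibition) seeded 4 h before compounds, 11-point 2-fold series 8 μM–8 nM; 4 days at 37 °C, 5% CO2. ATP by CellTiterGlo luminescence as cell-number proxy, response as % of media control (0.25% DMSO); EC150 = concentration giving 150% of control.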
Background: ATP-based viability assays read luminescence as a measure of living cells.

In general, melting point refers to the temperature, or range, at which the solid turns liquid. The compound `Cc1c2n(c3c(-c4ccc(C(C)(C)C)cc4)cc(Cl)cc13)CCNC2=O` [Example 118, 6-(4-tert-Butyl-phenyl)-8-chloro-10-methyl-3,4-dihydro-2H-pyrazino[1,2-a]indol-1-one] yielded a melting point of 252 °C. Moreover, the EC (150% of control) in series [1] was 0.15 µM.

For the compound `Cc1c2n(c3c(-c4ccnc(Cl)c4)cc(Cl)cc13)CCNC2=O` [Example 119, 8-Chloro-6-(2-chloro-pyridin-4-yl)-10-methyl-3,4-dihydro-2H-pyrazino[1,2-a]indol-1-one], the melting point came out at 270 °C. Moreover, the EC (150% of control) in series [1] was 0.16 µM.

Compound `Cc1c2n(c3c(-c4ccc(Cl)cc4Cl)cc(F)cc13)CCNC2=O` [Example 120, 6-(2,4-Dichloro-phenyl)-8-fluoro-10-methyl-3,4-dihydro-2H-pyrazino[1,2-a]indol-1-one] returned a melting point of 214 °C. This compound also came in with an EC (150% of control) in series [1] of 0.01 µM.

With `Cc1c2n(c3c(-c4ccc(Cl)cc4F)cc(F)cc13)CCNC2=O` [Example 121, 6-(4-Chloro-2-fluoro-phenyl)-8-fluoro-10-methyl-3,4-dihydro-2H-pyrazino[1,2-a]indol-1-one], the melting point was determined as 221 °C. For the same compound, the EC (150% of control) in series [1] stood at 0.01 µM.

Compound `Cc1c2n(c3c(-c4ccc(F)cc4F)cc(F)cc13)CCNC2=O` [Example 122, 6-(2,4-Difluoro-phenyl)-8-fluoro-10-methyl-3,4-dihydro-2H-pyrazino[1,2-a]indol-1-one] registered a melting point of 204 °C. The same compound showed an EC (150% of control) in series [1] of 0.013 µM.

The compound `Cc1c2n(c3c(-c4ccc5c(c4)OCO5)cc(F)cc13)CCNC2=O` [Example 123, 6-Benzo[1,3]dioxol-5-yl-8-fluoro-10-methyl-3,4-dihydro-2H-pyrazino[1,2-a]indol-1-one] showed a melting point of 206 °C. For the same compound, the EC (150% of control) in series [1] came out at 0.031 µM.

`Cc1c2n(c3c(-c4ccc(C#N)cc4)cc(F)cc13)CCNC2=O` [Example 124, 4-(8-Fluoro-10-methyl-1-oxo-1,2,3,4-tetrahydro-pyrazino[1,2-a]indol-6-yl)-benzonitrile] registered a melting point of 295 °C. Besides, the EC (150% of control) in series [1] stood at 0.023 µM.

`Cc1c2n(c3c(-c4ccc(S(C)(=O)=O)cc4)cc(F)cc13)CCNC2=O` [Example 125, 8-Fluoro-6-(4-methanesulfonyl-phenyl)-10-methyl-3,4-dihydro-2H-1-pyrazino[1,2-a]indol-1-one] registered a melting point of 292 °C. The compound also returned an EC (150% of control) in series [1] of 0.015 µM.

Compound `Cc1c2n(c3c(-c4ccc([N+](=O)[O-])cc4)cc(F)cc13)CCNC2=O` [Example 126, 8-Fluoro-10-methyl-6-(4-nitro-phenyl)-3,4-dihydro-2H-pyrazino[1,2-a]indol-1-one] showed a melting point of 309 °C. This compound came in with an EC (150% of control) in series [1] of 0.01 µM.

Turning to `Cc1c2n(c3c(-c4ccc(C(C)C)cc4)cc(F)cc13)CCNC2=O` [Example 127, 8-Fluoro-6-(4-isopropyl-phenyl)-10-methyl-3,4-dihydro-2H-pyrazino[1,2-a]indol-1-one], the melting point was determined as 177 °C. For the same compound, the EC (150% of control) in series [1] is 0.025 µM.

Consider `Cc1c2n(c3c(-c4cccc(Cl)c4)cc(F)cc13)CCNC2=O` [Example 128, 6-(3-Chloro-phenyl)-8-fluoro-10-methyl-3,4-dihydro-2H-pyrazino[1,2-a]indol-1-one], for which the melting point was 182 °C. In series [1], the EC (150% of control) was found to be 0.22 µM.

On to `Cc1c2n(c3c(-c4ccc5c(c4)CCO5)cc(F)cc13)CCNC2=O` [Example 129, 6-(2,3-Dihydro-benzofuran-5-yl)-8-fluoro-10-methyl-3,4-dihydro-2H-pyrazino[1,2-a]indol-1-one], for which the melting point stood at 251 °C. This compound also yielded an EC (150% of control) in series [1] of 0.022 µM.

`Cc1c2n(c3c(-c4ccc(CO)cc4)cc(F)cc13)CCNC2=O` [Example 130, 8-Fluoro-6-(4-hydroxymethyl-phenyl)-10-methyl-3,4-dihydro-2H-pyrazino[1,2-a]indol-1-one] yielded a melting point of 220 °C. In series [1], this compound had an EC (150% of control) of 0.011 µM.

As to `Cc1c2n(c3c(-c4cccc(C#N)c4)cc(F)cc13)CCNC2=O` [Example 131, 3-(8-Fluoro-10-methyl-1-oxo-1,2,3,4-tetrahydro-pyrazino[1,2-a]indol-6-yl)-benzonitrile], the melting point was 192 °C. The compound also came in with an EC (150% of control) in series [1] of 0.33 µM.

In turn, `Cc1c2n(c3c(-c4ccc(C(C)(C)C)cc4)cc(F)cc13)CCNC2=O` [Example 132, 6-(4-tert-Butyl-phenyl)-8-fluoro-10-methyl-3,4-dihydro-2H-pyrazino[1,2-a]indol-1-one] returned a melting point of 216 °C. For the same compound, the EC (150% of control) in series [1] is 0.046 µM.

As for `Cc1c2n(c3c(-c4ccc(OC(F)(F)F)cc4)cc(Cl)cc13)CCNC2=O` [Example 133, 8-Chloro-10-methyl-6-(4-trifluoromethoxy-phenyl)-3,4-dihydro-2H-pyrazino[1,2-a]indol-1-one], the melting point came out at 212 °C. This compound gave an EC (150% of control) in series [1] of 0.004 µM.

As to `Cc1cc(-c2cc(Cl)cc3c(C)c4n(c23)CCNC4=O)ccc1F` [Example 134, 8-Chloro-6-(4-fluoro-3-methyl-phenyl)-10-methyl-3,4-dihydro-2H-pyrazino[1,2-a]indol-1-one], the melting point stood at 235.5 °C. This compound also displayed an EC (150% of control) in series [1] of 0.083 µM.

As to `Cc1c2n(c3c(-c4ccc(Cl)c(C(F)(F)F)c4)cc(Cl)cc13)CCNC2=O` [Example 135, 8-Chloro-6-(4-chloro-3-trifluoromethyl-phenyl)-10-methyl-3,4-dihydro-2H-pyrazino[1,2-a]indol-1-one], the melting point is 268 °C. The compound further gave an EC (150% of control) in series [1] of 0.036 µM.

In turn, `Cc1c2n(c3c(-c4cc(F)c(F)c(F)c4)cc(Cl)cc13)CCNC2=O` [Example 136, 8-Chloro-10-methyl-6-(3,4,5-trifluoro-phenyl)-3,4-dihydro-2H-pyrazino[1,2-a]indol-1-one] had a melting point of 253 °C. This compound displayed an EC (150% of control) in series [1] of 0.021 µM.

As for `Cc1c2n(c3c(-c4cccnc4)cc(Cl)cc13)CCNC2=O` [Example 137, 8-Chloro-10-methyl-6-pyridin-3-yl-3,4-dihydro-2H-pyrazino[1,2-a]indol-1-one], the melting point was found to be 252.5 °C. This compound also came in with an EC (150% of control) in series [1] of 0.088 µM.

For `Cc1c2n(c3c(-c4cncnc4)cc(Cl)cc13)CCNC2=O` [Example 138, 8-Chloro-10-methyl-6-pyrimidin-5-yl-3,4-dihydro-2H-pyrazino[1,2-a]indol-1-one], the melting point was 306 °C. Further, the EC (150% of control) in series [1] turned out to be 0.21 µM.

Take `Cc1c2n(c3c(-c4ccnc(F)c4)cc(F)cc13)CCNC2=O` [Example 139, 8-Fluoro-6-(2-fluoro-pyridin-4-yl)-10-methyl-3,4-dihydro-2H-pyrazino[1,2-a]indol-1-one]: the melting point came out at 240 °C. This compound registered an EC (150% of control) in series [1] of 0.027 µM.

Consider `Cc1c2n(c3c(-c4ccnc(Cl)c4)cc(F)cc13)CCNC2=O` [Example 140, 6-(2-Chloro-pyridin-4-yl)-8-fluoro-10-methyl-3,4-dihydro-2H-pyrazino[1,2-a]indol-1-one], for which the melting point stood at 254 °C. This compound also showed an EC (150% of control) in series [1] of 0.12 µM.

These data come from US9284321B2, “Piperazino[1,2-a]indol-1-ones and [1,4]diazepino[1,2-a]indol-1-one” (Hoffmann-La Roche Inc., priority 2012, dated 2016).
